Assay results taken from US12559505B2, “IDH mutant inhibitor and use thereof” (WIGEN BIOMEDICINE TECHNOLOGY (SHANGHAI) CO., LTD., priority 2020, dated 2026).

Target: T1, IDH R132C (Homo sapiens, UniProt O75874, R132C)
T1 construct: expressed in transfected cells; host or cells: U87 cells
Test: Detection of 2-HG in supernatant of U87-IDH R132C cells
Assay type: cell-based
Details: 72 h, LC-MS-MS, vs control; for inhibition at 0.001 µM: 1 nM compound, read-out: Inhibition rate of compounds on 2-HG in the supernatant of U87-IDH R132C cells, 1 nM; for inhibition at 0.01 µM: 10 nM compound, read-out: Inhibition rate of compounds on 2-HG in the supernatant of U87-IDH R132C cells, 10 nM; for inhibition at 0.1 µM: 100 nM compound, read-out: Inhibition rate of compounds on 2-HG in the supernatant of U87-IDH R132C cells, 100 nM
Experimental: U87 cells overexpressing the IDH R132C mutation were seeded in a 48-well plate at 50,000 cells/well. After the cells were incubated overnight for adhesion, the supernatant was removed. The cell culture media containing serially diluted compounds were added, and the cells were incubated for 72 h. After 72 h, the cultures were collected and diluted 10-fold with water, and acetonitrile was added to extract the metabolites. The 2-HG content in the cultures was analyzed by LC-MS-MS, and the percentage inhibition of compounds on 2-HG in the supernatant was calculated as compared with the control.

T1 sequence (O75874 whole entry R132C): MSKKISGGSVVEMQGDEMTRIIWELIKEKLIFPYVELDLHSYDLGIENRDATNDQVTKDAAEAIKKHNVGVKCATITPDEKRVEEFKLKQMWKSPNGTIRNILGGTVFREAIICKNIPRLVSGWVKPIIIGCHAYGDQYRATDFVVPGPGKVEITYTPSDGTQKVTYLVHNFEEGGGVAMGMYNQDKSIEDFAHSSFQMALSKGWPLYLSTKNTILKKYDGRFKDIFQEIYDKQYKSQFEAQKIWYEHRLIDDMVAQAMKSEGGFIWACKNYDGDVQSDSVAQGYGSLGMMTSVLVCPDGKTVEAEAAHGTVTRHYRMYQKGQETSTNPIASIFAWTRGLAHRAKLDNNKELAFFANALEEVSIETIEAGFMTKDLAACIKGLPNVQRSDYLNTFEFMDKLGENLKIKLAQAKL

SMILES | inhibition at 0.001 µM [%] | inhibition at 0.01 µM [%] | inhibition at 0.1 µM [%]
C=CC(=O)N1CC2(C1)CN([C@H](CC13CC(C1)C3)c1ccc([C@H](C)Nc3ncc4c(n3)N(CC)C(=O)NC4)cc1)C2 [Compound 72-2] | 30 to 60 | 60 to 90 | > 90
C=CC(=O)N1CC2(C1)CN(C(CC(C)C)c1ccc([C@H](C)Nc3ncc4c(n3)N(C(C)C)C(=O)OC4)cc1)C2 (stereo partly drawn) [Compound 47] | 60 to 90 | > 90 | > 90
C=CC(=O)N1CC2(C1)CN(C(CC1CC1)c1ccc([C@H](C)Nc3ncc4c(n3)N(CCC)C(=O)OC4)cc1)C2 (stereo partly drawn) [Compound 53] | 30 to 60 | 60 to 90 | > 90
C=CC(=O)N(C)C1CN(C(CC2CC2)c2ccc(C3(Nc4ncc5c(n4)N(CC)C(=O)OC5)CC3)cc2)C1 (stereo not drawn) [Compound 30] | 30 to 60 | 60 to 90 | > 90
C=CC(=O)N(C)C1CCN(C(CC2CC2)c2ccc([C@H](C)Nc3ncc4c(n3)N(CC)C(=O)OC4)cc2)CC1 (stereo partly drawn) [Compound 16] | 30 to 60 | 60 to 90 | > 90
C=CC(=O)N1CCN(C(CC2CC2)c2ccc(C3(Nc4ncc5c(n4)N(CC)C(=O)OC5)CC3)cc2)CC1 (stereo not drawn) [Compound 152] | 30 to 60 | > 90 | > 90
C=CC(=O)N1CCN(C(CC(C)C)c2ccc([C@H](C)Nc3ncc4cnc(=O)n(C(C)C)c4n3)cc2)CC1 (stereo partly drawn) [Compound 113] | 60 to 90 | > 90 | > 90
C=CC(=O)NC1CCN(C(CC2CC2)c2ccc(C3(Nc4ncc5c(n4)N(CC)C(=O)OC5)CC3)cc2)CC1 (stereo not drawn) [Compound 27] | 30 to 60 | 60 to 90 | > 90
C=CC(=O)N1CC2(C1)CN(C(CC1CCC1)c1ccc([C@H](C)Nc3ncc4c(n3)N(CC)C(=O)OC4)cc1)C2 (stereo partly drawn) [Compound 63] | 30 to 60 | > 90 | > 90
C=CC(=O)NC1CN(C(CC2CC2)c2ccc([C@H](C)Nc3ncc4c(n3)N(C(C)C)C(=O)OC4)cc2)C1 (stereo partly drawn) [Compound 23] | 30 to 60 | 60 to 90 | > 90
C=CC(=O)N1CCN(C(CC(C)C)c2ccc([C@H](C)Nc3ncc4c(n3)N(C(C)C)C(=O)NC4)cc2)CC1 (stereo partly drawn) [Compound 81] | 30 to 60 | 60 to 90 | > 90

More lines, now with the values ahead:

inhibition at 0.001 µM [%] | inhibition at 0.01 µM [%] | inhibition at 0.1 µM [%] | SMILES
60 to 90 | > 90 | > 90 | C=CC(=O)N1CCN([C@@H](CC2CC2)c2ccc([C@H](C)Nc3ncc4cnc(=O)n(CC)c4n3)cc2)CC1 [Compound 114-1]
60 to 90 | > 90 | > 90 | C=CC(=O)N1CCN([C@@H](CC23CC(C2)C3)c2ccc([C@H](C)Nc3ncc4c(n3)N(CC)C(=O)NC4)cc2)CC1 [Compound 70-1]
60 to 90 | > 90 | > 90 | C=CC(=O)N1CCN(C(CC2CC2)c2ccc([C@H](C)Nc3ncc4c(n3)N(C(C)C)C(=O)OC4)cc2)CC1 (stereo partly drawn) [Compound 147]
30 to 60 | 60 to 90 | > 90 | C=CC(=O)N1CCN(C(CC2CCC2)c2ccc(C3(Nc4ncc5c(n4)N(CC)C(=O)OC5)CC3)cc2)CC1 (stereo not drawn) [Compound 153]
30 to 60 | 60 to 90 | > 90 | C=CC(=O)N1CCN([C@H](CC)c2ccc([C@H](C)Nc3ncc4cnc(=O)n(CC)c4n3)cc2)CC1 [Compound 116-2]
30 to 60 | > 90 | > 90 | C=CC(=O)N1CCN(C(CC)c2ccc([C@H](C)Nc3ncc4cnc(=O)n(CC)c4n3)cc2)CC1 (stereo partly drawn) [Compound 115]
30 to 60 | 30 to 60 | > 90 | C=CC(=O)NC1CCN(C(CC2CC2)c2ccc(C3(Nc4ncc5c(n4)N(C(C)C)C(=O)OC5)CC3)cc2)CC1 (stereo not drawn) [Compound 32]
60 to 90 | > 90 | > 90 | C=CC(=O)N1CCN(C(CC(C)C)c2ccc([C@H](C)Nc3ncc4cnc(=O)n(CC)c4n3)cc2)CC1 (stereo partly drawn) [Compound 116]
